ChEMBL document CHEMBL3612012, “Identification of orally-bioavailable antagonists of the TRPV4 ion-channel” (Bioorg Med Chem Lett, 2015)
Converted amounts (≈) assume the structure as drawn.

Legend:
Homo sapiens [1] = organism: Homo sapiens; assay: Binding affinity to chloride channel (unknown origin) assessed as inhibition of control specific binding at 10 uM
[2] = molecular target: Sodium-dependent noradrenaline transporter (Homo sapiens) (UniProt P23975); assay: Binding affinity to human NE transporter assessed as inhibition of control specific binding at 10 uM
[3] = molecular target: Sodium-dependent serotonin transporter (Homo sapiens) (UniProt P31645); assay: Binding affinity to human 5-HT transporter assessed as inhibition of control specific binding at 10 uM
[4] = molecular target: T1, Transient receptor potential cation channel subfamily V member 4 (Homo sapiens, UniProt Q9HBA0); assay: Antagonist activity at human TRPV4 receptor expressed in HEK293 cells assessed as inhibition of EC80 of 4alpha-PDD-stimulated calcium flux after 10 mins; assay type: cell-based
T1 sequence (Q9HBA0 whole entry): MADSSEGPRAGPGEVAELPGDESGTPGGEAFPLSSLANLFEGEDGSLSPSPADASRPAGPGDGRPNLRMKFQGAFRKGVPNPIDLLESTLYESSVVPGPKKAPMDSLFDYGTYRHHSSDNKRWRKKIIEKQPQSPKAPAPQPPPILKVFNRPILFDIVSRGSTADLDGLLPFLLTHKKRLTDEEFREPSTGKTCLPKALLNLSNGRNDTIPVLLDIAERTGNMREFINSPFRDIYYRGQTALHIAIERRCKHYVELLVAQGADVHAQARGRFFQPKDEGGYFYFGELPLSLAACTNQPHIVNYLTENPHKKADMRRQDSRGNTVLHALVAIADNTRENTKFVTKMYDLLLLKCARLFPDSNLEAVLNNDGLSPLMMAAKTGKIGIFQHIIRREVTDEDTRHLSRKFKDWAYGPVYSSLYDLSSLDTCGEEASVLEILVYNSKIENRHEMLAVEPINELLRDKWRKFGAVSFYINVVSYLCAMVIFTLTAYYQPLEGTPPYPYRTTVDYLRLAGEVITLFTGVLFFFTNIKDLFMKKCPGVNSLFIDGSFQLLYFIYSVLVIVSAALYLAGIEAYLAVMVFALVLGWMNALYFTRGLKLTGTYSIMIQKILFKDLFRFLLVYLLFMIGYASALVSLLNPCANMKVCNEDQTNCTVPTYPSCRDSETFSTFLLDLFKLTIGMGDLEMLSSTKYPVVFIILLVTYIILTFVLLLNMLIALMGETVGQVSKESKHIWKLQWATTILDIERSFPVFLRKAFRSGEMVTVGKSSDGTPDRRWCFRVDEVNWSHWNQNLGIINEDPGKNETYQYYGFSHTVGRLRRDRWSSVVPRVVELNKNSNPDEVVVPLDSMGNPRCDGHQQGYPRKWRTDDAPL

[5] = molecular target: T2, Transient receptor potential cation channel subfamily V member 4 (Rattus norvegicus, UniProt Q9ERZ8); assay: Antagonist activity at rat TRPV4 receptor expressed in HEK293 cells assessed as inhibition of EC80 of 4alpha-PDD-stimulated calcium flux after 10 mins; assay type: cell-based
T2 sequence (Q9ERZ8 whole entry): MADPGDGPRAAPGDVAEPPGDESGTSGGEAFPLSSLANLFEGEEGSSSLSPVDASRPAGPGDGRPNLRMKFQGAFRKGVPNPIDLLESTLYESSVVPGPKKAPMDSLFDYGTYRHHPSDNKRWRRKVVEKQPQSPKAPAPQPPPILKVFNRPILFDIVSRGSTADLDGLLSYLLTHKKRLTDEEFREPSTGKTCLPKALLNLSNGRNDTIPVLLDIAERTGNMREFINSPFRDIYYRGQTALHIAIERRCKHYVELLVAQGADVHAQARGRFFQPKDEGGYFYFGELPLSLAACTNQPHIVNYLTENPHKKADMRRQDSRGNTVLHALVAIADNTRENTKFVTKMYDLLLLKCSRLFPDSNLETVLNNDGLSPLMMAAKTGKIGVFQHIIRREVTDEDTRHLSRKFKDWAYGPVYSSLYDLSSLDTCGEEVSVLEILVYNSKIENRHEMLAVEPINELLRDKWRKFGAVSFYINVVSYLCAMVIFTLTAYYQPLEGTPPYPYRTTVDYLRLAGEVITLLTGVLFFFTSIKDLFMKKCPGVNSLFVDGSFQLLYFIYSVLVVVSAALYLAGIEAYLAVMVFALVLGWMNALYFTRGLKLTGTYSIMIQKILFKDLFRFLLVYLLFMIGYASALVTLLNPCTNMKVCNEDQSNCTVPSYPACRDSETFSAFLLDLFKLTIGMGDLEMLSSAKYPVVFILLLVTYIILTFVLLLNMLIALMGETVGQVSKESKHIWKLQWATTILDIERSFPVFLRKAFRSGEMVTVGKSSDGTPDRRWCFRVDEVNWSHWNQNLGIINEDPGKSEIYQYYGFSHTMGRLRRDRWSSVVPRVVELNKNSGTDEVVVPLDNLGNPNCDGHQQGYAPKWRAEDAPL

[6] = Clearance in Wistar rat at 1.40 mg/kg, iv; assay type: ADME, organism-based; details: in vivo, 1.4 mg/kg
[7] = AUC (infinity) in Wistar rat at 1.40 mg/kg, iv; assay type: ADME, organism-based; set-up: dose 1.4 mg/kg, time infinity, route intravenous; details: in vivo, 1.4 mg/kg
[8] = Volume of distribution at steady state in Wistar rat at 1.40 mg/kg, iv; assay type: ADME, organism-based; details: in vivo, 1.4 mg/kg, read-out: Vdss
[9] = Half life in Wistar rat at 1.40 mg/kg, iv; assay type: ADME, organism-based; details: in vivo, 1.4 mg/kg
[10] = AUC (infinity) in Wistar rat at 29.73 mg/kg, po; assay type: ADME, organism-based; set-up: dose 29.73 mg/kg, time infinity, route oral; details: in vivo
[11] = Solubility of the compound at pH 7.4; assay type: physicochemical; details: buffer
[12] = molecular target: T1, Transient receptor potential cation channel subfamily V member 4; assay: Antagonist activity at human TRPV4 expressed in HEK293 cells assessed as inhibition of 20% hypotonic solution-induced Ca2+ influx; assay type: cell-based
[13] = molecular target: T2, Transient receptor potential cation channel subfamily V member 4; assay: Antagonist activity at rat TRPV4 receptor expressed in HEK293 cells assessed as inhibition of 4alpha-PDD-stimulated calcium flux after 10 mins; assay type: cell-based
[14] = molecular target: Transient receptor potential cation channel subfamily V member 4 (Mus musculus, UniProt Q9EPK8); assay: Antagonist activity at mouse TRPV4 receptor expressed in HEK293 cells assessed as inhibition of EC80 of 4alpha-PDD-stimulated calcium flux after 10 mins; assay type: cell-based
Transient receptor potential cation channel subfamily V member 4 (Mus musculus, UniProt Q9EPK8), sequence (Q9EPK8 whole entry): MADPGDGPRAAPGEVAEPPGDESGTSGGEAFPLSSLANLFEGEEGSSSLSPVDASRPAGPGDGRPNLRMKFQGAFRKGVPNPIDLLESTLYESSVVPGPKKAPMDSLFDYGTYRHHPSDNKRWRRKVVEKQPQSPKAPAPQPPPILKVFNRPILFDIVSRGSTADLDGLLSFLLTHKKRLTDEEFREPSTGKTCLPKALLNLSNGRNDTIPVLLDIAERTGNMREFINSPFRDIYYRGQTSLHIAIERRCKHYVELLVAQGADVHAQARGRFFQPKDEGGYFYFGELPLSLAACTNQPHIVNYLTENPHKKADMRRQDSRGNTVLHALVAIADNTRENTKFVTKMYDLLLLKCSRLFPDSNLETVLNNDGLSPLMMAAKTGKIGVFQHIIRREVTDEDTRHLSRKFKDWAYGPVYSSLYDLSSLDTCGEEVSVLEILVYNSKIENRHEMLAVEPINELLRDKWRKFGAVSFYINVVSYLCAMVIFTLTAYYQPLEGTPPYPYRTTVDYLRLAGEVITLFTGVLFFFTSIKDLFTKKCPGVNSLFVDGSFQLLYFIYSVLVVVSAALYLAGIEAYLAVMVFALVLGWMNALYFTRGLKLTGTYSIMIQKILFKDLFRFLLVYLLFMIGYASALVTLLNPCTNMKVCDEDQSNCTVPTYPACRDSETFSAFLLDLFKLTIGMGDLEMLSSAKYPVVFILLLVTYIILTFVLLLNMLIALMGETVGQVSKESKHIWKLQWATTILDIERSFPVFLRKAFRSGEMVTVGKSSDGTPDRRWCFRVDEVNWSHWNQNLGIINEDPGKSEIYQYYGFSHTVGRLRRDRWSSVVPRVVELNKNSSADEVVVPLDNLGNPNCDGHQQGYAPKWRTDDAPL

[15] = Cmax in Wistar rat at 32.50 mg/kg, ip; assay type: ADME, organism-based; set-up: dose 32.5 mg/kg, route intraperitoneal; details: in vivo, 32.5 mg/kg
[16] = Bioavailability in Wistar rat at 32.50 mg/kg, ip; assay type: ADME, organism-based; details: in vivo, 32.5 mg/kg
[17] = molecular target: Adenosine receptor A1 (Homo sapiens) (UniProt P30542); assay: Binding affinity to human adenosine A1 receptor assessed as inhibition of control specific binding at 10 uM
Adenosine receptor A1 (Homo sapiens), sequence (P30542 whole entry): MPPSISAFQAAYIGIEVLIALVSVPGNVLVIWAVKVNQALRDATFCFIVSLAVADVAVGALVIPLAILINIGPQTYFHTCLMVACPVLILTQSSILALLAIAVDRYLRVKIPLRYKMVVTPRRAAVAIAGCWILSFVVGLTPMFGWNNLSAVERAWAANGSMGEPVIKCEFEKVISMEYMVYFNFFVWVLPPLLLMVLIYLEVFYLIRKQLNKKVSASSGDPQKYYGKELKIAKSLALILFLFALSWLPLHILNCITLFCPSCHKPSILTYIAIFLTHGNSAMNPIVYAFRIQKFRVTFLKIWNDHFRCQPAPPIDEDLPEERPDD

[18] = molecular target: Adenosine receptor A3 (Homo sapiens) (UniProt P0DMS8); assay: Binding affinity to human adenosine A3 receptor assessed as inhibition of control specific binding at 10 uM
Adenosine receptor A3 (Homo sapiens), sequence (P0DMS8 whole entry): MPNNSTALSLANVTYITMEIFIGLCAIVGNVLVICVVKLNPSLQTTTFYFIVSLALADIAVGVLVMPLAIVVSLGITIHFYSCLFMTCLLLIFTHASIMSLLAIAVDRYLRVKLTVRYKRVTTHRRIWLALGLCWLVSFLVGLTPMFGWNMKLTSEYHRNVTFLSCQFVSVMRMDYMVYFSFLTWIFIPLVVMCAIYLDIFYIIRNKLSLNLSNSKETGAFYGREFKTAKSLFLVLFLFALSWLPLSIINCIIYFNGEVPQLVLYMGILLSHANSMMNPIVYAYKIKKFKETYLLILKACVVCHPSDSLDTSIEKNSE

[19] = molecular target: Adrenergic receptor alpha-1 (Homo sapiens) (UniProt P35348+P25100+P35368); assay: Binding affinity to non-selective alpha1 adrenergic receptor (unknown origin) assessed as inhibition of control specific binding at 10 uM; assay type: protein assay
[20] = molecular target: Beta-1 adrenergic receptor (Homo sapiens) (UniProt P08588); assay: Binding affinity to human beta1 adrenergic receptor assessed as inhibition of control specific binding at 10 uM
[21] = molecular target: Beta-2 adrenergic receptor (Homo sapiens) (UniProt P07550); assay: Binding affinity to human beta2 adrenergic receptor assessed as inhibition of control specific binding at 10 uM
Beta-2 adrenergic receptor (Homo sapiens), sequence (P07550 whole entry, looked up): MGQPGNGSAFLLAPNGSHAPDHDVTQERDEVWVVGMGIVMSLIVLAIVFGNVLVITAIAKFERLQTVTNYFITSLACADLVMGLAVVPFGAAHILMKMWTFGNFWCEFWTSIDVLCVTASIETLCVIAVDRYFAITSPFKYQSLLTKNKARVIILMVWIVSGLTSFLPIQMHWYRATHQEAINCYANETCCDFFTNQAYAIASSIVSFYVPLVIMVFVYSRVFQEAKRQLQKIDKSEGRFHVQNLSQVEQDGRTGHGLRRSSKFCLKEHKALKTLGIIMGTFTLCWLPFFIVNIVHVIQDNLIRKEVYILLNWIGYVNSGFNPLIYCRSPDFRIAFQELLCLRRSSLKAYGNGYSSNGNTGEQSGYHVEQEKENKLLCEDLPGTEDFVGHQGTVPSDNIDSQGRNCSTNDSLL

Homo sapiens [22] = organism: Homo sapiens; assay: Binding affinity to central benzodiazepine receptor (unknown origin) assessed as inhibition of control specific binding at 10 uM
[23] = molecular target: Cholecystokinin receptor type A (Homo sapiens) (UniProt P32238); assay: Binding affinity to human CCKA receptor assessed as inhibition of control specific binding at 10 uM
[24] = molecular target: D(1A) dopamine receptor (Homo sapiens) (UniProt P21728); assay: Binding affinity to human D1 receptor assessed as inhibition of control specific binding at 10 uM
[25] = molecular target: D(2) dopamine receptor (Homo sapiens) (UniProt P14416); assay: Binding affinity to human D2S receptor assessed as inhibition of control specific binding at 10 uM
[26] = molecular target: Endothelin-1 receptor (Homo sapiens) (UniProt P25101); assay: Binding affinity to human ETA receptor assessed as inhibition of control specific binding at 10 uM
Endothelin-1 receptor (Homo sapiens), sequence (P25101 whole entry): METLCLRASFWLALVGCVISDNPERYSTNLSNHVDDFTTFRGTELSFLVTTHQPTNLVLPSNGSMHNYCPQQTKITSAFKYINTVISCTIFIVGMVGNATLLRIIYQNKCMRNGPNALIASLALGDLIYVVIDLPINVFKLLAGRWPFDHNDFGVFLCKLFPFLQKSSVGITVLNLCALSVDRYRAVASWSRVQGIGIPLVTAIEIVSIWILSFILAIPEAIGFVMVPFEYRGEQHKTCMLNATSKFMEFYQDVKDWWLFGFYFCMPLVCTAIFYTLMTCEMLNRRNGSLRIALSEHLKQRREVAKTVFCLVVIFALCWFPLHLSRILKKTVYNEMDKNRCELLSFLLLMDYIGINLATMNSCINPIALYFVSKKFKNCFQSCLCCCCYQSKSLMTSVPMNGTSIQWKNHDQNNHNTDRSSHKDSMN

[27] = molecular target: GABA-A receptor; agonist GABA site (Homo sapiens) (UniProt P14867+P47870+P28472+P48169+P34903+P18505+P47869+P31644+Q16445); assay: Binding affinity to GABAA receptor (unknown origin) assessed as inhibition of control specific binding at 10 uM; assay type: protein-complex assay
[28] = molecular target: Histamine H2 receptor (Homo sapiens) (UniProt P25021); assay: Binding affinity to human H2 receptor assessed as inhibition of control specific binding at 10 uM
Histamine H2 receptor (Homo sapiens), sequence (P25021 whole entry): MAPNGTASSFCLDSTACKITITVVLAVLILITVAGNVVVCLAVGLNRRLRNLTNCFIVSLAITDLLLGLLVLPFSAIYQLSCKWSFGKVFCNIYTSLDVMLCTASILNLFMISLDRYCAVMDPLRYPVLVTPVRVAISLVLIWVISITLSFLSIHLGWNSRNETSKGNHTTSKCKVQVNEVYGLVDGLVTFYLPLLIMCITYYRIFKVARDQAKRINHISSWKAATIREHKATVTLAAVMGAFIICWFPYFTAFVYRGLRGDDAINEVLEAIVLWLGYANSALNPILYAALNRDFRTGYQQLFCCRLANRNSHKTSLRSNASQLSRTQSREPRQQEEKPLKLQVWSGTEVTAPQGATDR

[29] = molecular target: Muscarinic acetylcholine receptor M3 (Homo sapiens) (UniProt P20309); assay: Binding affinity to human M3 receptor assessed as inhibition of control specific binding at 10 uM
[30] = molecular target: Neuromedin-K receptor (Homo sapiens) (UniProt P29371); assay: Binding affinity to human NK3 receptor assessed as inhibition of control specific binding at 10 uM
Neuromedin-K receptor (Homo sapiens), sequence (P29371 whole entry): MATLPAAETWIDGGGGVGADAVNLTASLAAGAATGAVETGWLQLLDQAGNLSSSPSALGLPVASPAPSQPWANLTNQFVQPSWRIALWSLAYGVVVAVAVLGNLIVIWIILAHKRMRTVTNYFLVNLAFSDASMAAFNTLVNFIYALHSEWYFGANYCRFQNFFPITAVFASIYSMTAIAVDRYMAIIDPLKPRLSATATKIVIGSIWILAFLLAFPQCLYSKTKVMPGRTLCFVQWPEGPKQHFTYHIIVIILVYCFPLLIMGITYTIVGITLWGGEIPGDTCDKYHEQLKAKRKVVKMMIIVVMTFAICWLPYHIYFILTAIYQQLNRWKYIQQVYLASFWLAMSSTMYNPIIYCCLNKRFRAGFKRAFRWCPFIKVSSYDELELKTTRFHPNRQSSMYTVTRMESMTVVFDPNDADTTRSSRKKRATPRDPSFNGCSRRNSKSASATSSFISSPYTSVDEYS

[31] = molecular target: Neuropeptide Y receptor type 2 (Homo sapiens) (UniProt P49146); assay: Binding affinity to human Y2 receptor assessed as inhibition of control specific binding at 10 uM
[32] = molecular target: Kappa-type opioid receptor (Homo sapiens) (UniProt P41145); assay: Binding affinity to human kappa opioid receptor assessed as inhibition of control specific binding at 10 uM
[33] = molecular target: Mu-type opioid receptor (Homo sapiens) (UniProt P35372); assay: Binding affinity to human mu opioid receptor agonist site assessed as inhibition of control specific binding at 10 uM
[34] = molecular target: 5-hydroxytryptamine receptor 2A (Homo sapiens) (UniProt P28223); assay: Binding affinity to human 5-HT2A receptor assessed as inhibition of control specific binding at 10 uM
[35] = molecular target: 5-hydroxytryptamine receptor 5A (Homo sapiens) (UniProt P47898); assay: Binding affinity to human 5-HT5A receptor assessed as inhibition of control specific binding at 10 uM
[36] = molecular target: 5-hydroxytryptamine receptor 6 (Homo sapiens) (UniProt P50406); assay: Binding affinity to human 5-HT6 receptor assessed as inhibition of control specific binding at 10 uM
[37] = molecular target: 5-hydroxytryptamine receptor 7 (Homo sapiens) (UniProt P34969); assay: Binding affinity to human 5-HT7 receptor assessed as inhibition of control specific binding at 10 uM
[38] = molecular target: Vasopressin V1a receptor (Homo sapiens) (UniProt P37288); assay: Binding affinity to human V1a receptor assessed as inhibition of control specific binding at 10 uM
Homo sapiens [39] = organism: Homo sapiens; assay: Binding affinity to verapamil site of calcium channel L (unknown origin) assessed as inhibition of control specific binding at 10 uM

inhibition (Homo sapiens [1]): 24%
inhibition [2]: 4%
inhibition [3]: 6%
IC50 [4]: 420 nM
IC50 [5]: 660 nM
clearance [6]: 23.7 mL/min/kg
AUC(0-inf) [7]: 1010 ng·h/mL
Vd [8]: 1.44 L/kg
half-life [9]: 42.6 min
AUC(0-inf) [10]: 10100 ng·h/mL
solubility [11]: 45.5 µM (≈ 22.8 µg/mL)
IC50 [12]: 570 nM
IC50 [13]: 120 nM
IC50 [14]: 320 nM
Cmax [15]: 10600 ng/mL
bioavailability [16]: 75%
inhibition [17]: 2%
inhibition [18]: 10%
inhibition [19]: 6%
inhibition [20]: 4%
inhibition [21]: 1%
inhibition (Homo sapiens [22]): 9%
inhibition [23]: 3%
inhibition [24]: 1%
inhibition [25]: 2%
inhibition [26]: -4%
inhibition [27]: 3%
inhibition [28]: -4%
inhibition [29]: 21%
inhibition [30]: 2%
inhibition [31]: 1%
inhibition [32]: 3%
inhibition [33]: 9%
inhibition [34]: 28%
inhibition [35]: 0%
inhibition [36]: -2%
inhibition [37]: -5%
inhibition [38]: 1%
inhibition (Homo sapiens [39]): 7%
Compound: CC(C)N1CCN(S(=O)(=O)c2ccc(NC(=O)c3ccc(C(F)(F)F)cc3[N+](=O)[O-])cc2)CC1
